Assay results as given in publication PMC10713630, “Elucidation of the structural basis for ligand binding and translocation in conserved insect odorant receptor co-receptors” (Nature Communications, 2023).
Where “and” joins values, the source holds several entries; their conditions need not be identical. Equal values may be shown once. Entries after “also recorded” stand apart in the source; their conditions may differ.

Key:
[1] = target: DmelOrco Y390F (Drosophila melanogaster, UniProt Q9VNB5, Y390F); experiment: TEVC recording of VUAA1-induced current, DmelOrco Y390F in Xenopus oocytes; format: cell-based; conditions: 500 µM VUAA1, TEVC
Source text: (§1) All Orco gene sequences were optimized[63] for protein expression in Xenopus laevis oocytes with the GenSmartTM Codon optimization Tool and subcloned into a pGEMHE-derived vector. The wildtype gene of Drosophila melanogaster Orco (DmelOrco) was synthesized by Genscript and subcloned with XmaI/XhoI cloning sites. Site-directed mutagenesis of DmelOrco was done by PCR with the Q5® site directed mutagenesis kit (NEB) using primers optimized with the NEBase Changer online tool and following the supplier’s protocol. After transformation of commercial competent bacteria (XL10 Gold) by standard heat-shock protocol and overnight culture in ampicillin-containing LB plates, positive clones were identified by electrophoretic restriction profile and external sequencing (Genewiz). DNAs of positive clones were amplified with Qiagen MidiPrep Kit and the ORF was fully sequenced. For in vitro transcription, DNAs were linearized with restriction enzyme NotI that cuts a unique site in the 3′ region of the polyA tail. […] DNA and RNA were analyzed by agarose-gel electrophoresis and quantified by spectrophotometry. […]
(§2) Whole cell currents were recorded with the two-electrode voltage-clamp (TEVC) technique with the HiClamp robot (MultiChannel System). […] Data were extracted with M. Vivaudou’s programs[65] and statistically analyzed with Prism 8 (Graphpad).

[2] = target: DmelOrco T80A (Drosophila melanogaster, UniProt Q9VNB5, T80A); experiment: TEVC recording of VUAA1-induced current, DmelOrco T80A in Xenopus oocytes; format: cell-based; design: VUAA1-induced current, T80A: unit not given here
Source text: as §1, §2

[3] = target: DmelOrco I181S (Drosophila melanogaster, UniProt Q9VNB5, I181S); experiment: TEVC recording of VUAA1-induced current, DmelOrco I181S in Xenopus oocytes; format: cell-based; design: VUAA1-induced current, i181S / VUAA1-induced current, I181S: unit not given here; conditions: for VUAA1-induced current, I181S: Fig.4i dose-response
Source text: (§3) All Orco gene sequences were optimized[63] for protein expression in Xenopus laevis oocytes with the GenSmartTM Codon optimization Tool and subcloned into a pGEMHE-derived vector. The wildtype gene of Drosophila melanogaster Orco (DmelOrco) was synthesized by Genscript and subcloned with XmaI/XhoI cloning sites. Site-directed mutagenesis of DmelOrco was done by PCR with the Q5® site directed mutagenesis kit (NEB) using primers optimized with the NEBase Changer online tool and following the supplier’s protocol. After transformation of commercial competent bacteria (XL10 Gold) by standard heat-shock protocol and overnight culture in ampicillin-containing LB plates, positive clones were identified by electrophoretic restriction profile and external sequencing (Genewiz). DNAs of positive clones were amplified with Qiagen MidiPrep Kit and the ORF was fully sequenced. For in vitro transcription, DNAs were linearized with restriction enzyme NotI that cuts a unique site in the 3′ region of the polyA tail. The linearized DNAs were purified by the standard phenol:chloroform extraction method and transcribed into mRNA using the T7 ultra mMessage mMachine kit (Thermo Fisher Scientific). mRNAs were purified with the NucleoSpin RNA plus XS kit (Machery-Nagel). DNA and RNA were analyzed by agarose-gel electrophoresis and quantified by spectrophotometry.
(§4) Xenopus laevis oocytes were prepared, as previously described. Briefly, oocytes were defolliculated after surgical retrieval by type 1 A collagenase over 2-3 h under smooth horizontal agitation. They were manually selected and incubated at 19 °C in modified-Barth’s solution (1 mM KCl, 0.82 mM MgSO4, 88 mM NaCl, 2.4 mM NaHCO3, 0.41 mM CaCl2, Ca(NO3)2 0.3 mM, 16 mM HEPES, pH 7.4) supplemented with 100 U mL^−1 of penicillin and streptomycin and 0.1 mg mL^−1 of gentamycin. Each oocyte was micro-injected with the Nanoject instrument (Drummond) with 50 nL of 20 ng of mRNA coding for the Orco of interest. Injected oocytes were incubated individually in 96-well plates for 4 days at 19 °C in the same buffer. Different batches of oocytes have been tested per construct. The results of the mutants of interest have been confirmed by a second set of experiments comparing the amplitudes with WT in the same day and from the same batch of oocytes (Supplementary Fig. 11).
(§5) Whole cell currents were recorded with the two-electrode voltage-clamp (TEVC) technique with the HiClamp robot (MultiChannel System). Microelectrodes were filled with 3 M KCl. The high K^+ buffer used for recordings was composed of 91 mM KCl, 1 mM MgCl2, 1.8 mM CaCl2, 5 mM HEPES, pH 7.4. Membrane voltage was clamped to −50 mV and VUAA1 was applied for 60 s. Data were extracted with M. Vivaudou’s programs[65] and statistically analyzed with Prism 8 (Graphpad).

[4] = target: DmelOrco V206W (Drosophila melanogaster, UniProt Q9VNB5, V206W); experiment: TEVC recording of VUAA1-induced current, DmelOrco V206W in Xenopus oocytes; format: cell-based; design: VUAA1-induced current, V206W: unit not given here; conditions: for VUAA1-induced current, V206W: individual oocytes
Source text: as §3, §4, §5

[5] = target: DmelOrco F84S (Drosophila melanogaster, UniProt Q9VNB5, F84S); experiment: TEVC recording of VUAA1-induced current, DmelOrco F84S in Xenopus oocytes; format: cell-based; conditions: 500 µM VUAA1, TEVC
Source text: as §1, §2

[6] = target: DmelOrco S146A (Drosophila melanogaster, UniProt Q9VNB5, S146A); experiment: TEVC recording of VUAA1-induced current, DmelOrco S146A in Xenopus oocytes; format: cell-based
Source text: as §1, §2

[7] = target: DmelOrco M210W (Drosophila melanogaster, UniProt Q9VNB5, M210W); experiment: TEVC recording of VUAA1-induced current, DmelOrco M210W in Xenopus oocytes; format: cell-based
Source text: as §3, §4, §5

[8] = target: DmelOrco Y400A (Drosophila melanogaster, UniProt Q9VNB5, Y400A); experiment: TEVC recording of VUAA1-induced current, DmelOrco Y400A in Xenopus oocytes; format: cell-based; conditions: 500 µM VUAA1, TEVC
Source text: as §1, §2

[9] = target: DmelOrco Y400W (Drosophila melanogaster, UniProt Q9VNB5, Y400W); experiment: TEVC recording of VUAA1-induced current, DmelOrco Y400W in Xenopus oocytes; format: cell-based; conditions: 500 µM VUAA1, TEVC
Source text: as §1, §2

[10] = tested on: AalbOrco; experiment: TEVC recording of VUAA1-induced current, AalbOrco in Xenopus oocytes; format: cell-based, Aedes albopictus; conditions: 500 µM VUAA1, TEVC, each value one oocyte, Fig.S1c source data
Source text: as §1, with “sequenced.” for “sequenced. For in vitro transcription, DNAs were linearized with restriction enzyme NotI that cuts a unique site in the 3′ region of the polyA tail.”
Whole cell currents were recorded with the two-electrode voltage-clamp (TEVC) technique with the HiClamp robot (MultiChannel System). […] Data were extracted with M. Vivaudou’s programs[65] and statistically analyzed with Prism 8 (Graphpad). […]
37 from different species expressed in Xenopus oocytes and recorded by TEVC. […]

[11] = tested on: non-injected oocytes; experiment: TEVC recording, negative control (NC) oocytes, non-injected or water-injected; format: cell-based, Xenopus laevis; conditions: Fig.4b; individual oocytes; in µA
Experimental: as §4
as §5, with “Membrane voltage was clamped to −50 mV and VUAA1 was applied for 60 s.” left out

DmelOrco M210W, sequence (Q9VNB5 whole entry M210W, the tested form may be a part): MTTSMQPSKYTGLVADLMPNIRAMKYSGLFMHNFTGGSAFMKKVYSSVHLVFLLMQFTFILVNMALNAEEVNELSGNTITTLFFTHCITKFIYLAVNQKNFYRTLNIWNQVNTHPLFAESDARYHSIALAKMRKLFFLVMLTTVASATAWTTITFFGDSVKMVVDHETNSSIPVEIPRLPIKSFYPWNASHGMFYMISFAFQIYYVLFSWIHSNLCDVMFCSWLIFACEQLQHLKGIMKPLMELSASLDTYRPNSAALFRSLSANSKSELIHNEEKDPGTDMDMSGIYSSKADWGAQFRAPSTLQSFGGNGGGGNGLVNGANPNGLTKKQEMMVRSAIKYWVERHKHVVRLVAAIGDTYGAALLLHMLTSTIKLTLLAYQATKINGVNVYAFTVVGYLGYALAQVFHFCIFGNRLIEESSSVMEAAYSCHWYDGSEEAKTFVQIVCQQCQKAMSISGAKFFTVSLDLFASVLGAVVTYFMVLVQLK
DmelOrco I181S, sequence (Q9VNB5 whole entry I181S, the tested form may be a part): as the sequence (Q9VNB5 whole entry M210W, the tested form may be a part) above, with I181S, W210M counted along it
DmelOrco V206W, sequence (Q9VNB5 whole entry V206W, the tested form may be a part): as the sequence (Q9VNB5 whole entry M210W, the tested form may be a part) above, with V206W, W210M counted along it
DmelOrco T80A, sequence (Q9VNB5 whole entry T80A, the tested form may be a part): as the sequence (Q9VNB5 whole entry M210W, the tested form may be a part) above, with T80A, W210M counted along it
DmelOrco S146A, sequence (Q9VNB5 whole entry S146A, the tested form may be a part): as the sequence (Q9VNB5 whole entry M210W, the tested form may be a part) above, with S146A, W210M counted along it
DmelOrco Y390F, sequence (Q9VNB5 whole entry Y390F, the tested form may be a part): as the sequence (Q9VNB5 whole entry M210W, the tested form may be a part) above, with W210M, Y390F counted along it
DmelOrco Y400W, sequence (Q9VNB5 whole entry Y400W, the tested form may be a part): as the sequence (Q9VNB5 whole entry M210W, the tested form may be a part) above, with W210M, Y400W counted along it
DmelOrco F84S, sequence (Q9VNB5 whole entry F84S, the tested form may be a part): as the sequence (Q9VNB5 whole entry M210W, the tested form may be a part) above, with F84S, W210M counted along it
DmelOrco Y400A, sequence (Q9VNB5 whole entry Y400A, the tested form may be a part): as the sequence (Q9VNB5 whole entry M210W, the tested form may be a part) above, with W210M, Y400A counted along it

In the case of `CCc1ccc(NC(=O)CSc2nnc(-c3cccnc3)n2CC)cc1` [VUAA1, N-(4-ethylphenyl)−2-((4-ethyl-5-(3-pyridinyl)−4H-1,2,4-triazol-3-yl)thio)acetamide], the “Response to VUAA1 compared with WT” value [1] is reported as “did not show significant change”, the “Response to VUAA1 compared with WT” value ([2]; 500 µM VUAA1, TEVC, T80A) is reported as “did not significantly affect the amplitude of activation” and the “VUAA1-induced current, T80A” value ([2]; Fig.4b, individual oocytes) is reported as 2.4 and 1.22 and 3.78 and 5.59 and 4.73 and 0.91 and 2.46 and 0.65 and 0.56 and 4.38 and 3.16 and 5.8. The EC50 [3] was 102 µM, the “Current induced by VUAA1 (median)” value ([3]; 500 µM VUAA1, TEVC, I181S) was 1.40 µA and the “Response to VUAA1 compared with WT” value ([3]; 500 µM VUAA1, TEVC, I181S) was “clear loss of VUAA1 activation”. The “VUAA1-induced current, i181S” value ([3]; Fig.4b, individual oocytes) was 1.9 and 2 and 1.3 and 0.38 and 0.78 and 1.7 and 1.5 and 2.2 and 2.1 and 1.2 and 1.4 and 0.46 and 1.1 and 1.8 and 2.3, the “VUAA1-induced current, I181S” value ([3]; VUAA1 10 µM (Log(M) -5), individual oocytes) was 0.26 and 0.25 and 0.11 and the “VUAA1-induced current, I181S” value ([3]; VUAA1 25 µM (Log(M) -4.6), individual oocytes) was 0.22 (2×) and 0.2 and 0.06 and 0.1 and 0.03 and 0.21 and 0.09. The “VUAA1-induced current, I181S” value ([3]; VUAA1 50 µM (Log(M) -4.3), individual oocytes) was 0.39 and 0.35 and 0.1 and 0.28 and 0.07 and 0.3 and 0.34 and 0.19, the “VUAA1-induced current, I181S” value ([3]; VUAA1 100 µM (Log(M) -4), individual oocytes) was 1.03 and 0.88 and 0.21 and 0.74 and 0.26 and 0.4 and 0.43 and 0.32 and the “VUAA1-induced current, I181S” value ([3]; VUAA1 500 µM (Log(M) -3.3), individual oocytes) was 1.45 and 1.2 and 0.29 and 2.29 and 0.87 and 0.44 and 0.47 and 0.39. The “VUAA1-induced current, I181S” value ([3]; VUAA1 1000 µM (Log(M) -3), individual oocytes) was 1.69 and 1.33 and 0.34 and 1.97 and 0.83 and 0.44 and 0.5 and 0.43, the Imax ([3]; concentration-effect curve of VUAA1, TEVC, I181S) was 0.94 µA and the “Response to VUAA1 compared with WT” value ([4]; 500 µM VUAA1, TEVC, V206W) was “significantly reduced or abolished the activation; also recorded: significant decrease in the response”. For the same compound, the “VUAA1-induced current, V206W” value ([4]; Fig.4b) was 0.24 and 0.29 and 1.03 and 0.65 and 0.59 and 0.7 and 0.64 and 0.44 and 0.27, the “VUAA1-induced current, V206W” value ([4]; Fig.4i dose-response, VUAA1 10 µM (Log(M) -5)) was 0.05 and 0.36 and 0.03 and 0.04 (2×) and 0.02 (2×) and 0.01 and the “VUAA1-induced current, V206W” value ([4]; Fig.4i dose-response, VUAA1 25 µM (Log(M) -4.6)) was 0.02 (2×) and 0.37 and 0.05 and 0.04 and 0.03 (3×). For the same compound, the “VUAA1-induced current, V206W” value ([4]; Fig.4i dose-response, VUAA1 50 µM (Log(M) -4.3)) was 0.01 and 0.48 and 0.1 and 0.04 (2×) and 0.05 (2×) and 0.03, the “VUAA1-induced current, V206W” value ([4]; Fig.4i dose-response, VUAA1 100 µM (Log(M) -4)) was 0.01 and 0.59 and 0.18 and 0.05 and 0.19 and 0 and 0.22 and 0.1 and the “VUAA1-induced current, V206W” value ([4]; Fig.4i dose-response, VUAA1 500 µM (Log(M) -3.3)) was 0.07 (2×) and 0.56 and 0.2 and 0.4 and 0.09 and 0.5 and 0.18. For the same compound, the “VUAA1-induced current, V206W” value ([4]; Fig.4i dose-response, VUAA1 1000 µM (Log(M) -3)) was 0.12 and 0.59 and 0.2 and 0.07 and 0.5 and 0.11 and 0.61 and 0.24, the Imax ([4]; concentration-effect curve of VUAA1, TEVC, V206W) was 0.33 µA and the “Response to VUAA1 compared with WT” value [5] was “decreased the response”. For the same compound, the “Current induced by VUAA1 (median)” value ([6]; 500 µM VUAA1, TEVC, S146A) was 7.55 µA, the “Effect on VUAA1-induced channel response” value ([6]; DmelOrco S146A) was “I” and the EC50 [7] was 120 µM. For the same compound, the “Current induced by VUAA1 (median)” value ([7]; 500 µM VUAA1, TEVC, M210W) was 2.12 µA, the “Response to VUAA1 compared with WT” value ([7]; 500 µM VUAA1, TEVC, M210W) was “significant decrease in the response” and the Imax ([7]; concentration-effect curve of VUAA1, TEVC, M210W) was 1.50 µA. For the same compound, the “Response to VUAA1 compared with WT” value [8] was “did not significantly change the response”, the “Response to VUAA1 compared with WT” value [9] was “did not significantly change the response” and the “Current amplitude induced by 500 µM VUAA1 (single recordings)” value [10] was 2.82 µA and 1.66 µA. For the same compound, the “VUAA1-induced current, NC” value [11] was 0.05 and 0.03 and 0.3 and 0.19 and 0.39 and 0.02.
